Read-outs that look alike come from different tables or passages of the source. In the oligonucleotide strings, read from the 5' end, every base follows the letter of its sugar. An asterisk marks phosphorothioate; unmarked linkages are phosphodiester. Other units and linkages are bracketed, terminal groups are in braces. A string of capitals states the bases alone. e = 2'-O-(2-methoxyethyl) (MOE); [5mC] = 5-methylcytosine; d = 2'-deoxy (DNA)
Columns and labels:
BALB/c mice = conditions: mouse, in vivo; for Blood: BALB/c, 30 min
human Factor 7 mRNA [1] = experiment: Dose-dependent antisense inhibition of human Factor 7 in HepB3 cells, transfection with electroporation; format: cell-based
Procedure, shortened: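 HepB3 cells, 20,000/well, electroporated with gapmers at 3.125–100 μM; about 16 h treatment. Factor 7 mRNA by qRT-PCR with primer probe set RTS 2927, normalized to RIBOGREEN total RNA; percent inhibition versus untreated cells.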

human Factor 7 mRNA [2] = experiment: Antisense inhibition of human Factor 7 mRNA in HepB3 cells, lipofectin, 50 nM, real-time RT-PCR; format: cell-based; conditions: HepB3 cells
Procedure, shortened: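 Seeding density was 4,000 cells per well. Following roughly 24 hours of oligonucleotide treatment, RNA was extracted and Factor 7 message quantified using the RTS 2927 primer probe set. Levels were corrected for RIBOGREEN® total RNA and expressed against untreated controls.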

human Factor 7 mRNA [3] = experiment: Dose-dependent antisense inhibition of human Factor 7 in HepB3 cells, transfection with lipofectin; format: cell-based; conditions: lipofectin, HepB3 cells, 16 hours
Procedure, shortened: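 HepB3 cells (4,000/well) lipofectin-transfected with antisense oligonucleotide at 3.125 or 6.25 up to 100 nM for ~16 h. Factor 7 mRNA measured by real-time RT-PCR with primer probe set RTS 2927, adjusted to RIBOGREEN total RNA; expressed as percent inhibition versus untreated control cells.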

platelet factor-4 (PF-4) = experiment: FeCl3 induced venous thrombosis (VT) model, real-time RT-PCR quantification of PF-4 in vena cava as measure of thrombus formation; format: in vivo, mouse; conditions: for PF-4 (percent of PF-4 mRNA as compared to the PBS + FeCl3 control): BALB/c mice, no ISIS 403102
Procedure: Two control groups of BALB/c mice were treated with PBS, administered subcutaneously twice a week for 3 weeks. Thrombus formation was induced with FeCl3 in half of the mice while the rest of the mice were assayed for tail bleeding. […] Thrombus formation was induced with FeCl3 in all groups of the VT mice except the first control group.
(§1) In mice undergoing FeCl3 treatment, thrombus formation was induced by applying a piece of filter paper (2×4 min) pre-saturated with 10% FeCl3 solution directly on the vena cava. After 3 minutes of exposure, the filter paper was removed. Thirty minutes after the filter paper application, a fixed length of the vein containing the thrombus was dissected out for platelet analysis. Liver was collected for RNA analysis.
(§2) Real-time RT-PCR quantification of platelet factor-4 (PF-4) was used to quantify platelets in the vena cava as a measure of thrombus formation.
Six additional groups of BALB/c mice was treated with 0.5 mg/kg, 1 mg/kg, 2 mg·kg, 3 mg/kg, 4 mg/kg, or 5 mg/kg of warfarin, administered intraperioneally daily for 6 days. Four hours after the last dose of warfarin, mice were sacrificed. A control group of BALB/c mice were treated with PBS, administered subcutaneously twice a week for 3 weeks. Two days after the last dose of PBS, mice were anesthetized with 150 mg/kg ketamine mixed with 10 mg/kg xylazine administered by intraperitoneal injection. Thrombus formation was induced with FeCl3 in groups of mice except the first control group.
as §1, with “mm)” for “min)”
as §2
Thrombus formation was induced with FeCl3 in all of the mice except the first […] control groups. All mice were anesthetized with 150 mg/kg of ketamine mixed with 10 mg/kg of xylazine administered by intraperitoneal injection.
After 3 minutes of exposure, the filter paper was removed. Thirty minutes after the filter paper application, a fixed length of the vein containing the thrombus was dissected out for platelet analysis.
Real-time PCR quantification of PF-4 was used to quantify platelets in the vena cava as a measure of thrombus formation. […] Data is presented as percent of PF-4 mRNA as compared to the PBS+ FeCl3 control, […]

[4] = 3.125 μM, 16 hours (Example 7, Table 15)
[5] = 6.25 μM, 16 hours (Example 7, Table 15)
[6] = 12.5 μM, 16 hours (Example 7, Table 15)
[7] = 25 μM, 16 hours (Example 7, Table 15)
[8] = 50 μM, 16 hours (Example 7, Table 15)
[9] = 100 μM, 16 hours (Example 7, Table 15)

Compound | percent inhibition of Factor 7 mRNA, relative to untreated control cells (human Factor 7 mRNA [1]; [4]) | percent inhibition of Factor 7 mRNA, relative to untreated control cells (human Factor 7 mRNA [1]; [5]) | percent inhibition of Factor 7 mRNA, relative to untreated control cells (human Factor 7 mRNA [1]; [6]) | percent inhibition of Factor 7 mRNA, relative to untreated control cells (human Factor 7 mRNA [1]; [7]) | percent inhibition of Factor 7 mRNA, relative to untreated control cells (human Factor 7 mRNA [1]; [8]) | percent inhibition of Factor 7 mRNA, relative to untreated control cells (human Factor 7 mRNA [1]; [9]) | percent inhibition of Factor 7 mRNA, relative to untreated control cells (human Factor 7 mRNA [3]; 3.125 nM) | percent inhibition of Factor 7 mRNA, relative to untreated control cells (human Factor 7 mRNA [3]; 12.5 nM) | percent inhibition of Factor 7 mRNA, relative to untreated control cells (human Factor 7 mRNA [3]; 25 nM) | percent inhibition of Factor 7 mRNA, relative to untreated control cells (human Factor 7 mRNA [3]; 50 nM) | percent inhibition of Factor 7 mRNA, relative to untreated control cells (human Factor 7 mRNA [3]; 100 nM) | percent inhibition of Factor 7 mRNA, relative to untreated control cells (human Factor 7 mRNA [3]) | other results
COc1ccc(-n2nc(C(N)=O)c3c2C(=O)N(c2ccc(N4CCCCC4=O)cc2)CC3)cc1 [Apixaban, reference compound] | – | – | – | – | – | – | – | – | – | – | – | – | Blood (BALB/c mice; ip, 5 mg/kg): 0.22 g; Blood (BALB/c mice; ip, 10 mg/kg): 0.58 g; Blood (BALB/c mice; sc, 10 mg/kg): 0.04 g; bleeding compared to PBS treated mice (BALB/c mice; ip, 5 mg/kg): same amount of bleeding as PBS treated mice; bleeding compared to PBS treated mice (BALB/c mice; ip, 10 mg/kg): increased bleeding; bleeding compared to PBS treated mice (BALB/c mice; sc, 10 mg/kg): less bleeding than PBS mice
422096 (antisense eA*eG*eA*e[5mC]*eA*dA*dT*dG*dG*dT*d[5mC]*dA*dG*dG*dG*e[5mC]*eT*eG*eG*eT) [compound 422096] | 26% | 30% | 46% | 50% | 62% | 85% | 17% | 43% | 60% | 68% | 82% | 23% | % Inhibition of human Factor 7 mRNA levels (human Factor 7 mRNA [2]; gapmers targeted to nucleobases 11830 to 11869 of SEQ ID NO: 1 (Table 9)): 76%
422295 (antisense e[5mC]*eG*dA*dG*dT*dT*d[5mC]*dT*dG*d[5mC]*dA*dG*dG*dA*dG*e[5mC]*eG*eG*e[5mC]*e[5mC]) [compound 422295] | 10% | 8% | 37% | 58% | 68% | 80% | 17% | 44% | 64% | 80% | 85% | 22% | % Inhibition of human Factor 7 mRNA levels (human Factor 7 mRNA [2]; gapmers (5-10-5, 3-14-3, 2-13-5 MOE) targeted to nucleobases 4868 to 4899 of SEQ ID NO: 1): 74%
COC(=O)[C@H](c1ccccc1Cl)N1CCc2sccc2C1 [Plavix, clopidogrel, reference compound] | – | – | – | – | – | – | – | – | – | – | – | – | PF-4 (percent of PF-4 mRNA as compared to the PBS + FeCl3 control) (platelet factor-4 (PF-4); FeCl3, Plavix 6.25 mg/kg): 61%; PF-4 (percent of PF-4 mRNA as compared to the PBS + FeCl3 control) (platelet factor-4 (PF-4); FeCl3, Plavix 12.50 mg/kg): 24%; PF-4 (percent of PF-4 mRNA as compared to the PBS + FeCl3 control) (platelet factor-4 (PF-4); FeCl3, Plavix 25.00 mg/kg): 13%; PF-4 (percent of PF-4 mRNA as compared to the PBS + FeCl3 control) (platelet factor-4 (PF-4); FeCl3, Plavix 50.00 mg/kg): 6%; PF-4 in comparison to the PBS control (platelet factor-4 (PF-4); Example 22, Plavix 6.25-50.00 mg/kg, three doses over two days): reduction of PF-4
422087 (antisense e[5mC]*eA*eT*eG*e[5mC]*dA*dT*dG*dG*dT*dG*dA*dT*dG*d[5mC]*eT*eT*e[5mC]*eT*eG) [compound 422087] | 22% | 26% | 48% | 57% | 72% | 80% | 14% | 51% | 73% | 83% | 90% | 24% | percent inhibition of Factor 7 mRNA, relative to untreated control cells (human Factor 7 mRNA [1]; 3.125 μM, 16 hours (Example 8, Table 16)): 19%; percent inhibition of Factor 7 mRNA, relative to untreated control cells (human Factor 7 mRNA [1]; 6.25 μM, 16 hours (Example 8, Table 16)): 38%; percent inhibition of Factor 7 mRNA, relative to untreated control cells (human Factor 7 mRNA [1]; 12.5 μM, 16 hours (Example 8, Table 16)): 66%; percent inhibition of Factor 7 mRNA, relative to untreated control cells (human Factor 7 mRNA [1]; 25 μM, 16 hours (Example 8, Table 16)): 75%; percent inhibition of Factor 7 mRNA, relative to untreated control cells (human Factor 7 mRNA [1]; 50 μM, 16 hours (Example 8, Table 16)): 80%; percent inhibition of Factor 7 mRNA, relative to untreated control cells (human Factor 7 mRNA [1]; 100 μM, 16 hours (Example 8, Table 16)): 87%; % Inhibition of human Factor 7 mRNA levels (human Factor 7 mRNA [2]; gapmers targeted to nucleobases 15188 to 15211 of SEQ ID NO: 1 (Table 13)): 83%
